# Measured values taken from patent US20250051403A1, “ANTIMICROBIAL PEPTIDES, VARIANTS AND CHEMICAL ANALOGUES THEREOF AND THEIR USES” (priority 2021, published 2025).
# Where two headings read alike, the source gives them in different places. Positions of bridges follow the written chain, without caps; N, C: chain ends. Residues, ends and D or L forms follow the SMILES beside them.
# Legend:
# P. aeruginosa [1] = experiment: Serial passage/resistance assay; assay type: cell-based, Pseudomonas aeruginosa; conditions: continuous exposure to sub-lethal doses, 30 days
# P. aeruginosa [2] = tested on: P. aeruginosa
# [3] = tested on: Mycobacterium tuberculosis mc^26230
# human erythrocytes = experiment: Haemolytic assay; assay type: cell-based
# Procedure: The hemolytic activity of the peptides was determined using fresh human erythrocytes from healthy donors. Blood was centrifuged and the erythrocytes were washed three times with a phosphate-buffered saline (PBS: 35 mM phosphate buffer/150 mM NaCl, pH 7.4). […] Samples were incubated at 37° C. for 60 min. After incubating the mixtures were centrifuged at 1,500 rpm for 10 min. The release of hemoglobin was monitored by measuring the absorbance (Abs) of the supernatant at 405 nm. Hemolytic rates of 0 and 100% were determined in PBS and 0.1% Triton X-100, respectively. The percentage of hemolysis was calculated by employing the following equation: Percentage hemolysis=[([…])/(Abs405 nm in 0.1% Triton X-100−Abs405 nm in PBS)]×100.
# [4] = tested on: Human umbilical vein endothelial cell (HUVEC); experiment: Cytotoxicity, resazurin cell viability; assay type: cell-based; conditions: even at doses>80 μM
# Procedure: (§1) The toxicity of Michelicin on human cells was tested as previously described (Borie et al., 2017; Oyama et al., 2017). Briefly, human cells were cultured in Dulbecco's modified essential medium (DMEM) supplemented with 10% fetal calf serum (FCS), 1% L-glutamine and 1% antibiotics (all from Invitrogen). Cells were routinely grown in onto 25 cm^2 flasks maintained in a 5% CO2 incubator at 37° C. For toxicity assay, cells grown on 25 cm^2 flasks were detached using trypsin-EDTA solution (Thermofisher) and seeded into 96-well cell culture plates (Greiner Bio-one) at approximately 10^4 cells per well (counted using Mallasez's chamber). The cells were grown at 37° C. in a 5% CO2 incubator until they reached confluence (approximately 48-72 h of seeding). Wells were then aspirated and increasing concentrations of AMP were added to the cells and incubated for a further 48 h at 37° C. in a 5% CO2 incubator. The wells were then emptied, and cell viability was evaluated using resazurin based in vitro toxicity assay kit (Sigma-Aldrich) following manufacturer's instructions. Briefly, resazurin stock solution was diluted 1:100 in sterile PBS containing calcium and magnesium (PBS++, pH 7.4) and emptied wells were filled with 100 μL of the resazurin diluted solution. After 4 h incubation at 37° C. with the peptide treated cells, fluorescence intensity was measured using microplate reader (SynerMix, Bioteck) (excitation wavelength of 530 nm/emission wavelength of 590 nm). The fluorescence values were normalized by the controls and expressed as percentage of cell viability. The IC50 values of tested AMP on cell viability (i.e. the concentration of peptides causing a reduction of 50% of the cell viability) were calculated using GraphPad® Prism 7 software. Two cell lines were tested: Human Bronchial Epithelial Cell Line (BEAS; ATCC CRL-9609) and Human umbilical vein endothelial cell (HUVEC).
# [5] = tested on: Human Bronchial Epithelial Cell Line (BEAS; ATCC CRL-9609); experiment: Cytotoxicity, resazurin cell viability; assay type: cell-based; conditions: even at doses>80 μM
# Procedure: as §1
# [6] = Cytotoxicity, resazurin cell viability; assay type: cell-based, human; conditions: human, 80 μM, 48 h
# Procedure: as §1
# [7] = tested on: human lung fibroblasts (IMR90 cells (ATCC CCL-186)); experiment: Cytotoxicity; assay type: cell-based; conditions: even at doses>80 μM
# [8] = tested on: B. subtilis nisin resistant (DSMZ 347); conditions: Table IV, strain description
# [9] = tested on: Bacillus subtilis (ATCC 6633); experiment: MIC, broth microdilution; assay type: cell-based; conditions: Table IV, strain description
# Procedure: To standardize the bacterial cell suspension for assay of antibacterial activity, some colonies of each strain grown overnight on MHA (Mueller Hinton Agar. ROTH) plates were suspended in MHB (Mueller Hinton Broth. ROTH) or MHB saline (Mueller Hinton Broth containing 565 mM NaCl) and incubated at 37° C. or 30° C. until visible turbid. This log-phase inoculum was diluted 1:100 in the same culture media. Using sterile 96-well microtiter plates (CELLSTAR. Greiner bio-one), serial 2-fold dilutions (40 to 0.78 μM) of each peptide were prepared in cation-adjusted acetic acid 0.02% with 0.4% BSA (Bovin Serum Albumin fraction V. Boehringer) at a volume of 10 μL/well. Each well was inoculated with 100 μL of the standardized bacterial inoculum, corresponding to a final test concentration of about 10^5 CFU/mL. Antimicrobial activities were expressed as the MIC (Minimal Inhibitory Concentration), the lowest concentration of peptide at which 100% inhibition of microbial growth was observed after 24 h of incubation at 37° C. or 30° C. by measuring OD600 in a microtiter plate reader. The minimal bactericidal concentration (MBC) was defined as the peptide concentration where no colony growth was observed.
# The same experiments as described in 1) were performed. For the evaluation of antimicrobial activity against some other strains, a resazurin microtiter assay was used as explained hereinafter.
# P. aeruginosa [10] = experiment: Membrane permeabilization assay (propidium iodide); assay type: cell-based, Pseudomonas aeruginosa; conditions: 2.5 min of incubation, 37° C., 3 times their MIC; CTAB at 300 μM
# Procedure: Several tests were performed to determine the mechanism of the antimicrobial activity of the peptides of the invention. Most of the cationic AMP can increase the permeability of the bacterial membrane through pore-forming activity. We evaluated the ability of Michelicin to cause pore-formation using P. aeruginosa as model bacteria. Permeabilization of the bacterial membrane by Michelicin was evaluated using the cell-impermeable DNA probe propidium iodide (PI) (Di Pasquale et al., 2010; Oyama et al., 2017). PI can interact with DNA/RNA, leading to increase in fluorescence of the molecule. The bacterial membrane is impermeable to PI preventing its interaction with intracellular DNA/RNA. Thus, fluorescence of PI (expressed as RFU: relative fluorescence unit) only increases if membrane integrity is compromised through pore-formation. We measured the time-dependent effect of our peptide and other molecules on PI fluorescence at 37° C., all molecules being tested at 3 times their MIC. […] Kinetics of fluorescence variations (excitation at 530 nm/emission at 590 nm) were recorded using a microplate reader (SynergyMx, Bioteck) over 80 min period at 37° C. […] The permeabilization effect of the tested compound (i.e., Michelicin, Alvinellacin, Arenicin, and control, PMB or CTAB) was expressed as percentage of total permeabilization caused by CTAB.
compound,measurement,setting,value
CO/N=C1\CN(c2nc3c(cc2F)c(=O)c(C(=O)O)cn3C2CC2)CC1CN (stereo not drawn) [Gemifloxacin],Resistance induction / fold increase in initial MIC (in words),P. aeruginosa [1],relevant
"CC[C@H](C)[C@@H]1NC(=O)[C@H](CCCNC(=N)N)NC(=O)[C@H](C(C)C)NC(=O)[C@@H](NC(=O)[C@@H](NC(=O)[C@@H](N)CCCNC(=N)N)C(C)C)CSSC[C@@H](C(=O)N[C@@H](Cc2c[nH]c3ccccc23)C(=O)N[C@@H](CC(N)=O)C(=O)N[C@H](C(=O)O)[C@@H](C)O)NC(=O)[C@H](CCCNC(=N)N)NC(=O)[C@H](CCCNC(=N)N)NC(=O)[C@H](Cc2ccc(O)cc2)NC(=O)[C@@H]2CSSC[C@H](NC1=O)C(=O)N[C@@H](CCCNC(=N)N)C(=O)N[C@@H](CC(N)=O)C(=O)NCC(=O)N[C@@H](CCCNC(=N)N)C(=O)N2 [Michelicin, RVC1VRIC2RNGRC3YRRC4WNT] (H-RVCVRICRNGRCYRRCWNT-OH; disulfide 3-16, 7-12)",P. aeruginosa MIC,P. aeruginosa [2],2.5 to 5 µM
same,M. smegmatis mc^2155 MIC,M. smegmatis mc^2155,0.57 to 2.15 µM
same,M. tuberculosis mc^26230 MIC,[3],12.3 to 13.0 µM
same,MIC,[3],12.3 to 13.0 µM
same,Effect on hemolysis,"human erythrocytes; 1.2 to 40 μM, 60 min at 37° C., FIG. 2",far less than the effect of Arenicin
same,Hemolytic activity,human erythrocytes; even at doses>80 μM,not observed
same,Cytotoxic activity towards HUVEC cells,[4],not observed
same,Cytotoxic activity towards BEAS cells,[5],not observed
same,"viability at 48 h, 80 µM","[6]; BEAS human bronchial epithelial cells (ATCC CRL-9609), read-out: % of viability, BEAS cells",100%
same,"viability at 48 h, 80 µM","[6]; HUVEC (human umbilical vein endothelial cells), read-out: % of viability, HUVEC cells",95%
same,Cytotoxic activity towards IMR90 cells,[7],not observed
same,MIC with 565 mM NaCl,Vibrio alginolyticus,0.62 to 1.25 µM
same,V. alginolyticus MIC,Vibrio alginolyticus,1.25 to 2.5 µM
same,MIC,Vibrio alginolyticus; 24 h,0.07 to 0.15 µM
Nisin,MIC Nisin,[8],MIC (Nisin 3 μg/mL)
same,MIC Nisin,[9],(MIC Nisin < 0.09 μg/mL)
polymyxin B [PMB],Permeabilization (percentage of total permeabilization caused by CTAB),P. aeruginosa [10],2-5%
